Laboratory results: ChEMBL document CHEMBL4354783, “The calcium-dependent lipopeptide antibiotics: structure, mechanism, & medicinal chemistry” (2019)
In brackets after ≈: the same amount, converted by molar mass.

What was measured:
Staphylococcus aureus = assay: Antibacterial activity against methicillin-resistant Staphylococcus aureus USA300 incubated for 18 hrs by two-fold serial dilutions method; type: functional; settings: USA300, 18 h
Enterococcus faecium = assay: Antibacterial activity against vancomycin-resistant Enterococcus faecium incubated for 18 hrs by two-fold serial dilutions method; type: functional

What does the source list for `CCC(C)CC/C=C\C=C\C(=O)N[C@H](C(=O)N[C@@H]1C(=O)N[C@H](C(C)C)C(=O)N[C@@H](CCCCN)C(=O)N[C@@H](C(O)C(=O)O)C(=O)N[C@@H](CC(=O)O)C(=O)NCC(=O)N[C@H](C(C)C(=O)O)C(=O)N[C@@H](C(C)C)C(=O)N2C[C@H](C)C[C@H]2C(=O)NC1C)C(C)C(=O)O` (some centres undefined)?
MIC (Staphylococcus aureus): 0.2 to 0.8 µg/mL (≈ 0.158 to 0.633 µM); MIC (Enterococcus faecium): 0.8 to 2 µg/mL (≈ 0.633 to 1.58 µM)

Which MIC (Staphylococcus aureus) does the source give for `CC(C)CC/C=C\C=C\C(=O)N[C@H](C(=O)N[C@@H]1C(=O)N[C@H](C(C)C)C(=O)N[C@@H](CCCCN)C(=O)N[C@@H](C(O)C(=O)O)C(=O)N[C@@H](CC(=O)O)C(=O)NCC(=O)N[C@H](C(C)C(=O)O)C(=O)N[C@@H](C(C)C)C(=O)N2C[C@H](C)C[C@H]2C(=O)NC1C)C(C)C(=O)O` (some centres undefined) here?
Its MIC is 0.2 to 0.8 µg/mL (≈ 0.16 to 0.64 µM).

What about the MIC (Enterococcus faecium) of the same compound?
The MIC was 0.8 to 2 µg/mL (≈ 0.64 to 1.6 µM).
